Experimental data taken from the CheMixHub viscosity set.
± gives the uncertainty stated by the source.

Assay: xn = mol fraction of the nth substance listed

CC(O)C(C)O (stereo not drawn) + O=C1CCCN1
Conditions	viscosity [mPa·s]
308.15 K, 101 kPa, x2 = 0.5898	14.65 ± 0.38

COC(=O)OCC(F)(F)F + O=C1OCCO1
313.15 K, 100 kPa
Conditions	viscosity [mPa·s]
x2 = 0.1011	0.826 ± 0.018
x2 = 0.1994	0.92 ± 0.02
x2 = 0.3006	1.03 ± 0.022
x2 = 0.3997	1.142 ± 0.025
x2 = 0.5004	1.264 ± 0.027
x2 = 0.5989	1.39 ± 0.03
x2 = 0.7023	1.524 ± 0.033
x2 = 0.7988	1.652 ± 0.036
x2 = 0.9	1.786 ± 0.039

Fc1ccccc1 + O=CN1CCOCC1
viscosity [mPa·s], 101 kPa
Conditions	x2 = 0.0946	x2 = 0.1904	x2 = 0.2873	x2 = 0.3854	x2 = 0.4847	x2 = 0.5853	x2 = 0.687	x2 = 0.79	x2 = 0.8944
303.15 K	0.72 ± 0.024	0.957 ± 0.031	1.245 ± 0.039	1.595 ± 0.049	2.028 ± 0.061	2.579 ± 0.076	3.265 ± 0.095	4.113 ± 0.12	5.175 ± 0.15
308.15 K	0.677 ± 0.023	0.895 ± 0.029	1.157 ± 0.036	1.466 ± 0.045	1.846 ± 0.056	2.325 ± 0.069	2.919 ± 0.085	3.64 ± 0.11	4.539 ± 0.13
313.15 K	0.641 ± 0.022	0.845 ± 0.028	1.079 ± 0.034	1.361 ± 0.042	1.711 ± 0.052	2.139 ± 0.063	2.669 ± 0.078	3.314 ± 0.096	4.111 ± 0.12

O=Cc1ccccc1 + O=[N+]([O-])c1ccccc1
303.15 K, 101 kPa
Conditions	viscosity [mPa·s]
x1 = 0.3043	1.495 ± 0.07
x1 = 0.6049	1.405 ± 0.066
x1 = 0.9018	1.295 ± 0.061

O=Cc1ccccc1 + OCc1ccccc1
293.15 K, 100 kPa
Conditions	viscosity [mPa·s]
x2 = 0.1032	1.695 ± 0.04
x2 = 0.2	1.882 ± 0.044
x2 = 0.3007	2.114 ± 0.049
x2 = 0.4023	2.322 ± 0.054
x2 = 0.4989	2.633 ± 0.06
x2 = 0.6013	3.114 ± 0.07
x2 = 0.688	3.591 ± 0.08
x2 = 0.8	4.366 ± 0.096
x2 = 0.8984	5.395 ± 0.12

[Br-].[Br-].[Br-].[Br-].[Sn+4] + Oc1ccccc1
313.15 K, 101 kPa
Conditions	viscosity [mPa·s]
x1 = 0.1	4.21 ± 0.11
x1 = 0.2	3.817 ± 0.1
x1 = 0.3	3.351 ± 0.088
x1 = 0.4	3.034 ± 0.08
x1 = 0.5	2.762 ± 0.073
x1 = 0.6	2.56 ± 0.067
x1 = 0.7	2.387 ± 0.063
x1 = 0.8	2.262 ± 0.059
x1 = 0.9	2.137 ± 0.056

c1ccc(Nc2ccccc2)cc1 + Oc1ccccc1
viscosity [mPa·s], 101 kPa
Conditions	303.15 K	313.15 K	323.1 K
x1 = 0.21	–	–	3.825 ± 0.077
x1 = 0.444	–	–	4.362 ± 0.088
x1 = 0.683	–	–	5.01 ± 0.1
x2 = 0.133	12.57 ± 0.13	7.95 ± 0.08	–
x2 = 0.2435	11.65 ± 0.12	7.43 ± 0.08	–
x2 = 0.3531	10.72 ± 0.11	6.93 ± 0.07	–
x2 = 0.4454	10.03 ± 0.11	6.52 ± 0.07	–
x2 = 0.5306	9.47 ± 0.1	6.2 ± 0.06	–
x2 = 0.6104	8.98 ± 0.09	5.91 ± 0.06	–
x2 = 0.6735	8.61 ± 0.09	5.68 ± 0.06	–
x2 = 0.7266	8.28 ± 0.09	5.51 ± 0.06	–
x2 = 0.7989	7.91 ± 0.08	5.28 ± 0.06	–
x2 = 0.8548	7.65 ± 0.08	5.13 ± 0.05	–
x2 = 0.908	7.42 ± 0.08	4.98 ± 0.05	–
x2 = 0.9541	7.255 ± 0.076	4.845 ± 0.05	–

O=C(O)C(Cl)Cl + [Cl-].[Cl-].[Cl-].[Cl-].[Sn+4]
viscosity [mPa·s], 101 kPa
Conditions	x2 = 0.1	x2 = 0.2027	x2 = 0.3211	x2 = 0.5002	x2 = 0.805
308.15 K	3.657 ± 0.15	2.621 ± 0.11	2.121 ± 0.088	1.445 ± 0.06	0.831 ± 0.035
323.15 K	2.609 ± 0.11	1.982 ± 0.083	1.63 ± 0.068	1.09 ± 0.046	0.705 ± 0.029

Cc1ccc(C)cc1 + c1ccccc1
Conditions	viscosity [mPa·s]
293.15 K, 101.33 kPa, x2 = 0.2202	0.631 ± 0.0056
293.15 K, 101.33 kPa, x2 = 0.42	0.623 ± 0.0056
293.15 K, 101.33 kPa, x2 = 0.7393	0.627 ± 0.0056
293.15 K, 101.33 kPa, x2 = 0.8207	0.628 ± 0.0056
298 K, 101.3 kPa, x2 = 0.2099	0.603 ± 0.008
298 K, 101.3 kPa, x2 = 0.3766	0.596 ± 0.007
298 K, 101.3 kPa, x2 = 0.5839	0.596 ± 0.007
298 K, 101.3 kPa, x2 = 0.7205	0.596 ± 0.007
298 K, 101.3 kPa, x2 = 0.8802	0.599 ± 0.006
303 K, 101 kPa, x1 = 0.1002	0.5613 ± 0.0039
303 K, 101 kPa, x1 = 0.2018	0.5603 ± 0.004
303 K, 101 kPa, x1 = 0.3012	0.5605 ± 0.0041
303 K, 101 kPa, x1 = 0.397	0.5611 ± 0.0041
303 K, 101 kPa, x1 = 0.4983	0.5617 ± 0.0042
303 K, 101 kPa, x1 = 0.5959	0.5628 ± 0.0043
303 K, 101 kPa, x1 = 0.7005	0.5641 ± 0.0044
303 K, 101 kPa, x1 = 0.8019	0.5666 ± 0.0045
303 K, 101 kPa, x1 = 0.8988	0.5684 ± 0.0047
303.15 K, 101.33 kPa, x2 = 0.2202	0.557 ± 0.0051
303.15 K, 101.33 kPa, x2 = 0.42	0.55 ± 0.005
303.15 K, 101.33 kPa, x2 = 0.7393	0.55 ± 0.005
303.15 K, 101.33 kPa, x2 = 0.8207	0.553 ± 0.0051
313 K, 101 kPa, x1 = 0.1002	0.4975 ± 0.0036
313 K, 101 kPa, x1 = 0.2018	0.4982 ± 0.0036
313 K, 101 kPa, x1 = 0.3012	0.4993 ± 0.0037
313 K, 101 kPa, x1 = 0.397	0.502 ± 0.0038
313 K, 101 kPa, x1 = 0.4983	0.5024 ± 0.0039
313 K, 101 kPa, x1 = 0.5959	0.5039 ± 0.0039
313 K, 101 kPa, x1 = 0.7005	0.5071 ± 0.004
313 K, 101 kPa, x1 = 0.8019	0.509 ± 0.0042
313 K, 101 kPa, x1 = 0.8988	0.5122 ± 0.0043
313.15 K, 101.33 kPa, x2 = 0.2202	0.497 ± 0.0046
313.15 K, 101.33 kPa, x2 = 0.42	0.493 ± 0.0046
313.15 K, 101.33 kPa, x2 = 0.7393	0.49 ± 0.0046
313.15 K, 101.33 kPa, x2 = 0.8207	0.485 ± 0.0045
318 K, 101.3 kPa, x2 = 0.1977	0.4856 ± 0.019
318 K, 101.3 kPa, x2 = 0.3756	0.4775 ± 0.019
318 K, 101.3 kPa, x2 = 0.5821	0.4739 ± 0.019
318 K, 101.3 kPa, x2 = 0.7212	0.472 ± 0.019
318 K, 101.3 kPa, x2 = 0.8882	0.4718 ± 0.019
323 K, 101 kPa, x1 = 0.1002	0.4435 ± 0.0033
323 K, 101 kPa, x1 = 0.2018	0.4443 ± 0.0033
323 K, 101 kPa, x1 = 0.3012	0.4462 ± 0.0034
323 K, 101 kPa, x1 = 0.397	0.4502 ± 0.0035
323 K, 101 kPa, x1 = 0.4983	0.4513 ± 0.0035
323 K, 101 kPa, x1 = 0.5959	0.4527 ± 0.0036
323 K, 101 kPa, x1 = 0.7005	0.4554 ± 0.0037
323 K, 101 kPa, x1 = 0.8019	0.4585 ± 0.0038
323 K, 101 kPa, x1 = 0.8988	0.4596 ± 0.0039
323.15 K, 101.33 kPa, x2 = 0.2202	0.45 ± 0.0043
323.15 K, 101.33 kPa, x2 = 0.42	0.447 ± 0.0042
323.15 K, 101.33 kPa, x2 = 0.7393	0.442 ± 0.0042
323.15 K, 101.33 kPa, x2 = 0.8207	0.435 ± 0.0042
